The values that follow come from patent US5929093A, “Bifunctional acetylcholinesterase reactivators” (priority 1997, dated 1999).

In this assay the target is T1, human red blood cell AChE (Homo sapiens, UniProt P22303).
T1 construct: human red blood cell AChE; from tissue; host or cells: human red blood cells
Nature of the assay: AChE reactivation assay with echothiophate-inhibited human red blood cell AChE. The conditions noted are these: for activation at 1 µM: read-out: Percentages of AChE reactivation. It counts as biochemical.

[1] abbreviates: single concentration 10^-6 M, added for 1 hour, AChE inhibited by echothiophate 10^-7 M, means ± standard errors of 4 measurements.

T1 sequence (P22303 other isoform, or with tags, fused parts or gaps): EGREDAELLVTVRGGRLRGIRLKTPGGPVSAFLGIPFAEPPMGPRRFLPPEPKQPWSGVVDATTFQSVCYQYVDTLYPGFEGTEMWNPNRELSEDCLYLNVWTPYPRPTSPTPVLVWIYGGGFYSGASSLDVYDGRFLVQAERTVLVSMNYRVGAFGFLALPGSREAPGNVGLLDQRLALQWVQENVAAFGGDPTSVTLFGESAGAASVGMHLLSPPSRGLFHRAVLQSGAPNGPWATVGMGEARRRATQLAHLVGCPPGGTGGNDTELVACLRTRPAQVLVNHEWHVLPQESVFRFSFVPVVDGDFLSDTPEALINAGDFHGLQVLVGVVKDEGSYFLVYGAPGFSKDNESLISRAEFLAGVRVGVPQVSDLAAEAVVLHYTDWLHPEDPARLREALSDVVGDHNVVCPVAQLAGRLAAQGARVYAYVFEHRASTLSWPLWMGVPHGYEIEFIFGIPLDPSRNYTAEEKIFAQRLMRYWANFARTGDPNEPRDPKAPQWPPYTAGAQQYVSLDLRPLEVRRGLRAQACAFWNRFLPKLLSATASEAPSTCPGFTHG

As to `ON=Cc1cccc[n+]1CCCCCCCCC[n+]1ccccc1C=NO` [Compound 3d, 1,9-Nonylene-bis-N,N'-2-pyridiniumaldoxime dichloride], the activation at 1 µM under setting [1] worked out at 58 ± 0.5%.
`ON=Cc1cc[n+](CCCCCCC[n+]2ccc(C=NO)cc2)cc1` [Compound 1b, 1,7-Heptylene-bis-N,N'-4-pyridiniumaldoxime dibromide]: the “potency in reactivation relative to 2-PAM (full dose-response curves)” value (full dose-response curves, compared with 2-PAM) is reported as “ten-fold more potent”. For the same compound, the activation at 1 µM under setting [1] was determined as 61 ± 3.2%.
In the case of `C[n+]1ccccc1C=NO` [Compound 2-PAM, 2-pralidoxime, reference compound], under setting [1], the “Percentages of AChE reactivation” value was 17 ± 2.8% and the activation at 1 µM stood at 17%.
Take `ON=Cc1cc[n+](CCCCCCCC[n+]2ccc(C=NO)cc2)cc1` [Compound 1c, 1,8-Octylene-bis-N,N'-4-pyridiniumaldoxime dibromide]: the activation at 1 µM under setting [1] was 44 ± 1.7%.
In the case of `ON=Cc1cc[n+](CCCCCC[n+]2ccc(C=NO)cc2)cc1` [Compound 1a, 1,6-Hexylene-bis-N,N'-4-pyridiniumaldoxime dibromide], under setting [1], the activation at 1 µM is 47 ± 1.8%.
`ON=Cc1cccc[n+]1CCCCCCCC[n+]1ccccc1C=NO` [Compound 3c, 1,8-Octylene-bis-N,N'-2-pyridiniumaldoxime dichloride]: the activation at 1 µM under setting [1] was 69 ± 4.7%.
As to `ON=Cc1cccc[n+]1CCCCCCC[n+]1ccccc1C=NO` [Compound 3b, 1,7-Heptylene-bis-N,N'-2-pyridiniumaldoxime dichloride], the activation at 1 µM under setting [1] stood at 80 ± 3.7%.
`ON=Cc1cccc[n+]1CCCCCC[n+]1ccccc1C=NO` [Compound 3a, 1,6-Hexylene-bis-N,N'-2-pyridinium aldoxime dichloride]: the activation at 1 µM under setting [1] was 67 ± 0.8%.
On the same count and under the same terms, the same measure for `ON=Cc1cc[n+](CCCCCCCCC[n+]2ccc(C=NO)cc2)cc1` [Compound 1d, 1,9-Nonylene-bis-N,N'-4-pyridiniumaldoxime dibromide]: 31 ± 2.3%.
